# Assay results taken from US6388109B1, “14,15-cyclopropano steroids of the 19-norandrostane series, method for the production thereof and pharmaceutical preparations containing said compounds” (Jenapharm GmbH & Co. KG, priority 1998, dated 2002).
# Legend:
# [1] = biological target: T1, androgen receptor of the rat prostate (Rattus norvegicus, UniProt P15207); assay: binding to the androgen receptor of the rat prostate (reference substance: R 1881)
# T1 construct: androgen receptor of the rat prostate; from tissue; host or cells: rat prostate
# T1 sequence (P15207 1-902): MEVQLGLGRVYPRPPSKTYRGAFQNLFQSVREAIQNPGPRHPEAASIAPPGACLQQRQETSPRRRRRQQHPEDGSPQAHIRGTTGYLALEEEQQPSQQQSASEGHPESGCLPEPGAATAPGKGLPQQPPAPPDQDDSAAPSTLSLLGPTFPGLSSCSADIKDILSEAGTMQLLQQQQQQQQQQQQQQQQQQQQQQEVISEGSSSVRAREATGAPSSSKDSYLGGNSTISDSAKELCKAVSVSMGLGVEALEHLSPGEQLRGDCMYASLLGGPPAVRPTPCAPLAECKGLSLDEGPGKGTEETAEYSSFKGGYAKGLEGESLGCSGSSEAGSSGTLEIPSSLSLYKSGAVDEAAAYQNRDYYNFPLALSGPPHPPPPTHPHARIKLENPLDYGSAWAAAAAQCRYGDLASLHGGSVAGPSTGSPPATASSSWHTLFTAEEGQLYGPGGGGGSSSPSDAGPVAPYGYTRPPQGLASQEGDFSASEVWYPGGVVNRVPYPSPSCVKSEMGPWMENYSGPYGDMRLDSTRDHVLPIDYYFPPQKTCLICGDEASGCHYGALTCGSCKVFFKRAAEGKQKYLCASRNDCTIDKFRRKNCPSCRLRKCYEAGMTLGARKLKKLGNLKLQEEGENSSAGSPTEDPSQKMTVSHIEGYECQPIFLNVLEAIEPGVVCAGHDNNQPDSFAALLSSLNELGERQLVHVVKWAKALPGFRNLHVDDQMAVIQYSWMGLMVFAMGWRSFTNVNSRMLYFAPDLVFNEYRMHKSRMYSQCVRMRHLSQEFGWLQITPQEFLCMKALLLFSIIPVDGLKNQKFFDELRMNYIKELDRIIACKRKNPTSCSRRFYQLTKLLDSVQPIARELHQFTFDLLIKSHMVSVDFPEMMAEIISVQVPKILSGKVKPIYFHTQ
# [2] = tested on: pregnancy maintenance (gestagenic action); assay: pregnancy maintenance test in mice; assay type: in vivo
# Description: Another example is the compound of general formula I—in which R1 and R2 in each case represent a hydrogen atom, R3 represents an α-position hydrogen atom, R4 stands for a β-position hydroxy group, and the cyclopropane ring is in α-position—17β-hydroxy-14,α,15α-methylenestr-4-en-3-one (J 1129), which in the same test has an approximately 50-fold stronger gestagenic action in comparison to the reference substance norethisterone acetate.
# [3] = biological target: T2, progesterone receptor of the rabbit uterus (Oryctolagus cuniculus, UniProt P06186); assay: binding to the progesterone receptor of the rabbit uterus (reference substance: progesterone)
# T2 construct: progesterone receptor of the rabbit uterus; from tissue; host or cells: rabbit uterus
# T2 sequence (P06186 1-930): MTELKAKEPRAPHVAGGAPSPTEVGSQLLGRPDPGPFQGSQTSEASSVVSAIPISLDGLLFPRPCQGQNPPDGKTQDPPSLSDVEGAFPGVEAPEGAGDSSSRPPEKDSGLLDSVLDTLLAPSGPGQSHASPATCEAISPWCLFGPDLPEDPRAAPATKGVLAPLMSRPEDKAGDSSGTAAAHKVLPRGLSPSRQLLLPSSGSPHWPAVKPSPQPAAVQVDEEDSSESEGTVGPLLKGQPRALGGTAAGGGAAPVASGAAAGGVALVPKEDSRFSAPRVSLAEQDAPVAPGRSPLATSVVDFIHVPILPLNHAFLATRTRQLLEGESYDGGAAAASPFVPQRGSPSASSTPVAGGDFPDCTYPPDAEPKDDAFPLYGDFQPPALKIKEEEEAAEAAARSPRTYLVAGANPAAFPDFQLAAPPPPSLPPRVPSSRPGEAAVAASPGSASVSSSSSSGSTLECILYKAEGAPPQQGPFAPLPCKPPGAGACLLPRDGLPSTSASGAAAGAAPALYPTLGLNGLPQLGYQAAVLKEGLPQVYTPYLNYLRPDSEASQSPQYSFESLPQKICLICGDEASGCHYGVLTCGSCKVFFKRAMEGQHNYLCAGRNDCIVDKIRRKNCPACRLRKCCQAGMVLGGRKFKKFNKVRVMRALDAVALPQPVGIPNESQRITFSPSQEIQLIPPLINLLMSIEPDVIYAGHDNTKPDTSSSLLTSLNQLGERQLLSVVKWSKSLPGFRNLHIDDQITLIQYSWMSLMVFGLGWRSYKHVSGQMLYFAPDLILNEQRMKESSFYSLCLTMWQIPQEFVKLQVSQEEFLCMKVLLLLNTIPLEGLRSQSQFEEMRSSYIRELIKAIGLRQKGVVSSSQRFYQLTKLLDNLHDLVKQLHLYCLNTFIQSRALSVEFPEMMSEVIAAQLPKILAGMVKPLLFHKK
# Description: Another example is the compound of general formula I—in which R1 and R2 in each case represent a hydrogen atom, R3 means an α-position chloromethyl group, R4 stands for a β-position hydroxy group, and the cyclopropane ring is in β-position—17α-chloromethyl-17β-hydroxy-14β,15β-methylenestr-4-en-3-one (Code J 1364), which binds with 710±80% to the progesterone receptor of the rabbit uterus (reference substance: progesterone).
Structure (SMILES),affinity to the androgen receptor (in words) ([1]; reference substance: R 1881),effectiveness in the pregnancy maintenance test compared with norethisterone acetate ([2]; reference gestagen norethisterone acetate),binding to the progesterone receptor [3] [%],"binding to the androgen receptor ([1]; reference substance: 17β-hydroxy-17α-methyl-estra-4,9,11-trien-3-one (R 1881)) [%]","gestagenic action in comparison to the reference substance norethisterone acetate ([2]; pregnancy maintenance test, stronger than norethisterone acetate)"
"COC[C@]1(O)C[C@H]2C[C@]23[C@@H]2CCC4=CC(=O)CC[C@@H]4[C@H]2CC[C@]13C [J 1222, 17β-Hydroxy-17α-(methoxymethyl)-14β,15β-methylenestr-4-en-3-one]",virtually no affinity,just as effective,52±4,–,–
"C[C@]12CC[C@H]3[C@@H](CCC4=CC(=O)CC[C@@H]43)[C@@]13C[C@H]3C[C@@H]2O [J 1129, 17β-Hydroxy-14α,15α-methylenestr-4-en-3-one]",–,–,42±5,59±7,approximately 50 fold
"CC12CCC3C4CCC(=O)C=C4CCC3C13CC3CC2(O)CCl (stereo not drawn) [J 1364, 17α-Chloromethyl-17β-hydroxy-14β,15β-methylenestr-4-en-3-one]",–,–,710±80,–,–
